From patent publication US20090143454A1, “Pyrazoline Derivatives and Their Use As Pesticides” (BAYER CROPSCIENCE AG, priority 2001, published 2009)

How the values were obtained:
Format in all cases: in vivo
[1] = system: caterpillars of the army worm (Spodoptera frugiperda); experiment: Spodoptera frugiperda test; conditions: 168 h, cabbage leaves dipped, after 7 d, read-out: Kill rate in % after 7 d
Protocol: (§1) To produce a suitable preparation of active compound, 1 part by weight of active compound is mixed with the stated amounts of solvent and emulsifier, and the concentrate is diluted with emulsifier-containing water to the desired concentration.
Cabbage leaves (Brassica oleracea) are treated by being dipped into the preparation of active compound of the desired concentration and are populated with caterpillars of the army worm (Spodoptera frugiperda) while the leaves are still moist.
(§2) After the desired period of time, the kill in % is determined. 100% means that all caterpillars have been killed; 0% means that none of the caterpillars have been killed.

[2] = system: larvae of the mustard beetle (Phaedon cochleariae); experiment: Phaedon larvae test; conditions: 168 h, cabbage leaves dipped, after 7 d, read-out: Kill rate in % after 7 d
Protocol: To produce a suitable preparation of active compound, 1 part by weight of active compound is mixed with the stated amounts of solvent and emulsifier, and the concentrate is diluted with emulsifier-containing water to the desired concentration. Cabbage leaves (Brassica oleracea) are treated by being dipped into the preparation of active compound of the desired concentration and are populated with larvae of the mustard beetle (Phaedon cochleariae) while the leaves are still moist.

[3] = system: Periplaneta americana; experiment: Cockroach test; conditions: dipped 1 minute, after 7 days
Protocol: (§3) 20 mg of active compound are dissolved in 1 ml of dimethyl sulphoxide. More dilute concentrations are prepared by dilution with distilled water.
4 test animals are dipped for 1 minute into the preparation of active compound to be tested. After transfer into a plastic beaker and storage for 7 days in an air-conditioned room the killing rate is determined. 100% means, that all cockroaches have been killed, 0% means, that none of the cockroaches have been killed.

[4] = system: larvae of the army worm (Spodoptera frugiperda); experiment: Test for persistency: Spodoptera frugiperda; conditions: 20 ppm, cotton plants sprayed
Protocol: as §1
Cotton plants (Gossypium hirsutum) are sprayed with a preparation of active compound of the desired concentration. After the stated number of days, larvae of the army worm (Spodoptera frugiperda) are, in infection chambers, placed on the treated leaves.
as §2

[5] = system: Lucilia cuprina larvae; experiment: Blowfly larvae test/development-inhibitory action
Protocol: as §3
About 20 Lucilia cuprina larvae are introduced into a test tube which contains about 1 cm^3 of horsemeat and 0.5 ml of the preparation of active compound to be tested. The activity of the preparation of active compound is determined after 24 and 48 hours. The test tubes are transferred into a beaker whose bottom is covered with sand. After a further 2 days, the test tubes are removed and the pupae are counted.
The activity of the preparation of active compound is assessed using the number of flies that have hatched after 1.5 times the development period of an untreated control. 100% means that none of the flies have hatched; 0% means that all of the flies have hatched normally.

[6] = system: Heliothis virescens larvae; experiment: Test for persistency: Heliothis virescens; conditions: 20 ppm, cotton plants sprayed
Protocol: as §1
Cotton plants (Gossypium hirsutum) are sprayed with a preparation of active compound of the desired concentration. After the stated number of days, Heliothis virescens larvae are, in infection chambers, placed on the treated leaves.
as §2

Structure (SMILES): N#Cc1cnn(C2CN(C(=O)Nc3ccc(C(F)(F)F)cc3)N=C2c2ccc(Cl)cc2)c1 (stereo not shown) [drawing 62]
- pest or weed control at 500 ppm [1]: 100%

Structure (SMILES): N#CCN(C(=O)N1CC(n2cc(C#N)cn2)C(c2ccc(Cl)cc2)=N1)c1ccc(OC(F)(F)F)cc1 (stereo not shown) [drawing 46]
- pest or weed control at 500 ppm [2]: 100%

Structure (SMILES): N#Cc1cnn(C2CN(C(=O)Nc3ccc(SC(F)(F)F)cc3)N=C2c2ccc(I)cc2)c1 (stereo not shown) [drawing 69]
- pest or weed control at 500 ppm [1]: 100%

Structure (SMILES): N#Cc1cnn(C2CN(C(=O)Nc3ccc(OC(F)(F)F)cc3)N=C2c2ccc(Br)cc2)c1 (stereo not shown) [drawing 101]
- activity/kill rate in % ([3]; 100 ppm): 25%

Structure (SMILES): N#Cc1cnn(C2CN(C(=O)Nc3ccc(SC(F)(F)F)cc3)N=C2c2ccc(Br)cc2)c1 (stereo not shown) [drawing 66]
- pest or weed control at 500 ppm [1]: 100%

Structure (SMILES): COC(=O)N(C(=O)N1CC(n2cc(C#N)cn2)C(c2ccc(Cl)cc2)=N1)c1ccc(OC(F)(F)F)cc1 (stereo not shown) [drawing 99]
- activity/kill rate in % ([3]; 20 ppm): 25%
- activity/kill rate in % ([3]; 100 ppm): 100%

Structure (SMILES): N#Cc1cnn(C2CN(C(=O)Nc3ccc(C(F)(F)F)cc3)N=C2c2ccc(Cl)cc2)c1 (stereo not shown) [drawing 76]
- Kill rate in % 7 d after infection ([4]; infection after 5 d): infection after: 5^d 12^d 19^d 100 100 100%
- Kill rate in % 7 d after infection ([4]; infection after 12 d): infection after: 5^d 12^d 19^d 100 100 100%
- Kill rate in % 7 d after infection ([4]; infection after 19 d): infection after: 5^d 12^d 19^d 100 100 100%

Structure (SMILES): N#Cc1cnn(C2CN(C(=O)Nc3ccc(OC(F)(F)F)cc3)N=C2c2ccc(Cl)cc2)c1 (stereo not shown) [drawing 97]
- activity/kill rate in % ([3]; 100 ppm): 25%

Structure (SMILES): N#Cc1cnn(C2CN(C(=O)Nc3ccc(OC(F)(F)F)cc3)N=C2c2ccc(Cl)cc2)c1 (stereo not shown) [drawing 75]
- Kill rate in % 7 d after infection ([4]; infection after 5 d): infection after: 5^d 12^d 19^d 100 100 100%
- Kill rate in % 7 d after infection ([4]; infection after 12 d): infection after: 5^d 12^d 19^d 100 100 100%
- Kill rate in % 7 d after infection ([4]; infection after 19 d): infection after: 5^d 12^d 19^d 100 100 100%

Structure (SMILES): N#Cc1cnn(C2CN(C(=O)Nc3ccc(S(=O)(=O)C(F)(F)F)cc3)N=C2c2ccc(Cl)cc2)c1 (stereo not shown) [drawing 84]
- activity/kill rate in % after 48 h ([5]; 20 ppm): 100/100%
- activity/kill rate in % after 48 h ([5]; 100 ppm): 100/100%

Structure (SMILES): N#CCN(C(=O)N1CC(n2cc(C#N)cn2)C(c2ccc(Cl)cc2)=N1)c1ccc(OC(F)(F)F)cc1 (stereo not shown) [drawing 85]
- activity/kill rate in % after 48 h ([5]; 20 ppm): 100/100%
- activity/kill rate in % after 48 h ([5]; 100 ppm): 100/100%

Structure (SMILES): N#Cc1cnn(C2CN(C(=O)Nc3ccc(OC(F)(F)F)cc3)N=C2c2ccc(SC(F)(F)F)cc2)c1 (stereo not shown) [drawing 70]
- pest or weed control at 500 ppm [1]: 100%

Structure (SMILES): N#CCN(C(=O)N1CC(n2cc(C#N)cn2)C(c2ccc(Cl)cc2)=N1)c1ccc(OC(F)(F)F)cc1 (stereo not shown) [drawing 63]
- pest or weed control at 500 ppm [1]: 100%

Structure (SMILES): N#Cc1cnn(C2CN(C(=O)Nc3ccc(S(=O)(=O)C(F)(F)F)cc3)N=C2c2ccc(Br)cc2)c1 (stereo not shown) [drawing 67]
- pest or weed control at 500 ppm [1]: 100%

Structure (SMILES): N#Cc1cnn(C2CN(C(=O)Nc3ccc(Cl)cc3)N=C2c2ccc(Cl)cc2)c1 (stereo not shown) [drawing 44]
- pest or weed control at 500 ppm [2]: 100%

Structure (SMILES): N#Cc1cnn(C2CN(C(=O)Nc3ccc(S(=O)(=O)C(F)(F)F)cc3)N=C2c2ccc(Cl)cc2)c1 (stereo not shown) [drawing 52]
- pest or weed control at 500 ppm [2]: 100%

Structure (SMILES): N#Cc1cnn(C2CN(C(=O)Nc3ccc(OC(F)(F)F)cc3)N=C2c2ccc(I)cc2)c1 (stereo not shown) [drawing 83]
- activity/kill rate in % after 48 h ([5]; 20 ppm): 100/100%
- activity/kill rate in % after 48 h ([5]; 100 ppm): 100/100%

Structure (SMILES): N#Cc1cnn(C2CN(C(=O)Nc3ccc(SC(F)(F)F)cc3)N=C2c2ccc(Cl)cc2)c1 (stereo not shown) [drawing 88]
- activity/kill rate in % after 14 d ([5]; 20 ppm): 100/100%
- activity/kill rate in % after 14 d ([5]; 100 ppm): 100/100%

Structure (SMILES): N#Cc1cnn(C2CN(C(=O)Nc3ccc(Cl)cc3)N=C2c2ccc(Cl)cc2)c1 (stereo not shown) [drawing 87]
- activity/kill rate in % after 14 d ([5]; 20 ppm): 100/100%
- activity/kill rate in % after 14 d ([5]; 100 ppm): 100/100%

Structure (SMILES): N#Cc1cnn(C2CN(C(=O)Nc3ccc(OC(F)(F)F)cc3)N=C2c2ccc(I)cc2)c1 (stereo not shown) [drawing 68]
- pest or weed control at 500 ppm [1]: 100%

Structure (SMILES): N#Cc1cnn(C2CN(C(=O)Nc3ccc([S+]([O-])C(F)(F)F)cc3)N=C2c2ccc(Cl)cc2)c1 (stereo not shown) [drawing 90]
- activity/kill rate in % after 14 d ([5]; 20 ppm): 100/100%
- activity/kill rate in % after 14 d ([5]; 100 ppm): 100/100%

Structure (SMILES): N#Cc1cnn(C2CN(C(=O)Nc3ccc(SC(F)(F)F)cc3)N=C2c2ccc(SC(F)(F)F)cc2)c1 (stereo not shown) [drawing 71]
- pest or weed control at 500 ppm [1]: 100%

Structure (SMILES): CCOC(=O)N(C(=O)N1CC(n2cc(C#N)cn2)C(c2ccc(Cl)cc2)=N1)c1ccc(OC(F)(F)F)cc1 (stereo not shown) [drawing 80]
- pest or weed control at 100 ppm ([5]; Lucilia cuprina, 48 h, read-out: activity/kill rate in % after 48 h): 100%

Structure (SMILES): N#Cc1cnn(C2CN(C(=O)Nc3ccc(OC(F)(F)F)cc3)N=C2c2ccc(Br)cc2)c1 (stereo not shown) [drawing 49]
- pest or weed control at 500 ppm [2]: 100%

Structure (SMILES): N#Cc1cnn(C2CN(C(=O)Nc3ccc(C(F)(F)F)cc3)N=C2c2ccc(Cl)cc2)c1 (stereo not shown) [drawing 73]
- Kill rate in % 7 d after infection ([6]; infection after 5 d): 100%
- Kill rate in % 7 d after infection ([6]; infection after 12 d): 100%
- Kill rate in % 7 d after infection ([6]; infection after 19 d): 90%

Structure (SMILES): N#Cc1cnn(C2CN(C(=O)Nc3ccc(OC(F)(F)F)cc3)N=C2c2ccc(Cl)cc2)c1 (stereo not shown) [drawing 78]
- activity/kill rate in % after 48 h ([5]; 20 ppm): 100/100%
- activity/kill rate in % after 48 h ([5]; 100 ppm): 100/100%

Structure (SMILES): COC(=O)N(C(=O)N1CC(n2cc(C#N)cn2)C(c2ccc(Cl)cc2)=N1)c1ccc(OC(F)(F)F)cc1 (stereo not shown) [drawing 79]
- activity/kill rate in % after 48 h ([5]; 20 ppm): 100/100%
- activity/kill rate in % after 48 h ([5]; 100 ppm): 100/100%

Structure (SMILES): N#Cc1cnn(C2CN(C(=O)Nc3ccc(SC(F)(F)F)cc3)N=C2c2ccc(Cl)cc2)c1 (stereo not shown) [drawing 77]
- Kill rate in % 7 d after infection ([4]; infection after 5 d): 90%
- Kill rate in % 7 d after infection ([4]; infection after 12 d): 100%
- Kill rate in % 7 d after infection ([4]; infection after 19 d): 100%

Structure (SMILES): N#Cc1cnn(C2CN(C(=O)Nc3ccc(SC(F)(F)F)cc3)N=C2c2ccc(Br)cc2)c1 (stereo not shown) [drawing 50]
- pest or weed control at 500 ppm [2]: 100%

Structure (SMILES): N#Cc1cnn(C2CN(C(=O)Nc3ccc(OC(F)(F)F)cc3)N=C2c2ccc(I)cc2)c1 (stereo not shown) [drawing 51]
- pest or weed control at 500 ppm [2]: 100%

Structure (SMILES): CCOC(=O)N(C(=O)N1CC(n2cc(C#N)cn2)C(c2ccc(Cl)cc2)=N1)c1ccc(OC(F)(F)F)cc1 (stereo not shown) [drawing 47]
- pest or weed control at 500 ppm [2]: 100%

Structure (SMILES): N#Cc1cnn(C2CN(C(=O)Nc3ccc(OC(F)(F)F)cc3)N=C2c2ccc(Br)cc2)c1 (stereo not shown) [drawing 65]
- pest or weed control at 500 ppm [1]: 100%

Structure (SMILES): N#Cc1cnn(C2CN(C(=O)Nc3ccc(OC(F)(F)F)cc3)N=C2c2ccc(Cl)cc2)c1 (stereo not shown) [drawing 72]
- Kill rate in % 7 d after infection ([6]; infection after 5 d): 100%
- Kill rate in % 7 d after infection ([6]; infection after 12 d): 90%
- Kill rate in % 7 d after infection ([6]; infection after 19 d): 100%

Structure (SMILES): N#Cc1cnn(C2CN(C(=O)Nc3ccc(SC(F)(F)F)cc3)N=C2c2ccc(Cl)cc2)c1 (stereo not shown) [drawing 74]
- Kill rate in % 7 d after infection ([6]; infection after 5 d): 80%
- Kill rate in % 7 d after infection ([6]; infection after 12 d): 70%
- Kill rate in % 7 d after infection ([6]; infection after 19 d): 90%

Structure (SMILES): COC(=O)N(C(=O)N1CC(n2cc(C#N)cn2)C(c2ccc(Cl)cc2)=N1)c1ccc(OC(F)(F)F)cc1 (stereo not shown) [drawing 45]
- pest or weed control at 500 ppm [2]: 100%

Structure (SMILES): CCOC(=O)N(C(=O)N1CC(n2cc(C#N)cn2)C(c2ccc(Cl)cc2)=N1)c1ccc(OC(F)(F)F)cc1 (stereo not shown) [drawing 64]
- pest or weed control at 500 ppm [1]: 100%

Structure (SMILES): N#Cc1cnn(C2CN(C(=O)Nc3ccc(OC(F)(F)F)cc3)N=C2c2ccc(Cl)cc2)c1 (stereo not shown) [drawing 43]
- pest or weed control at 500 ppm [2]: 100%
